Test results as given in patent US20120003156A1, “METHODS FOR TREATING NEOPLASIA BY INHIBITING LACTATE DEHYDROGENASE AND/OR NICOTINAMIDE PHOSPHORIBOSYLTRANSFERASE” (The Johns Hopkins University, priority 2008, published 2012).

Legend:
[1] = molecular target: purified human liver LDHA (Homo sapiens, UniProt P00338); experiment: Determination of Ki and enzyme kinetics of LDHA
Method: The reaction velocity of purified human LDHA or GAPDH was determined by a decrease or increase in absorbance at 340 nm of NADH, respectively. […] The GADPH activity was assessed using the protocol described in Worthington Enzyme Manual: http://www.worthington-biochem.com/GAPD/assay.html with varying concentrations of NAD^+. Ki values were determined from double-reciprocal plots by linear regression analysis using SigmaPlot Enzyme Kinetic software.

[2] = test system: P493 human lymphoma B cells; experiment: Human P493 B cell lymphoma xenograft; assay type: in vivo, SCID mice; details: treatment from 200 mm^3; daily IP 42 μg FX11 and/or 100 μg FK866; ten days
Method: The animal studies were performed according to the protocols approved by the Animal Care and Use Committee at Johns Hopkins University. In order to generate tumorigenesis study in xenograft model, 2.0×10^7 P493 human lymphoma B cells or 5×10^6 human pancreatic cancer cells were injected subcutaneously into male SCID mice (NCI) or athymic Hsd: RH-Foxn1nu mice (Harlan), respectively, as previously described (Feldmann et al., 2007; Gao et al., 2009; Gao et al., 2007). When the tumor volume reached 200 mm^3, groups of 5 mice were injected with control 2% DMSO or 42 μg FX11 and/or 100 μg FK866. The tumor volumes were measured using a digital caliper after 4, 7 and 10 days of treatment. Tumor volumes were calculated using the following formula: [length (mm)×width (mm)×width (mm)×0.52]. The entire experiment was repeated seven times.

LDHA [3] = molecular target: T1, LDHA (Homo sapiens, UniProt P00338); details: cited from earlier work
AMP kinase (AMPK) = experiment: Immunoblot of phospho-AMPK; assay type: cell-based, human; details: 20 hours of exposure
P493 cells [4] = experiment: ATP levels, luciferin-luciferase-based assay; assay type: cell-based, human; details: 9 μM FX11 or 0.5 nM FK866, 20 hours
Method: P493 cells were treated with 9 μM FX11 or 0.5 nM FK866 for 20 hours and counted. ATP levels were determined by luciferin-luciferase-based assay (Promega) on aliquots containing equal number of cells according to standard protocol.

P493 cells [5] = experiment: ROS measurement by DCFDA flow cytometry; assay type: cell-based, human
Method: The measurement of intracellular ROS production was measured by staining cells with 5-(and-6)-carboxy-2′,7′-dichlorodihydrofluorescein diacetate (carboxy-H2DCFDA; Molecular Probes) according to the manufacturer's instructions. 10^5 cells/ml were treated with 9 μM FX11 or FK866 for 24 hours. Stained cells were analyzed in FACScan flow cytometers (BD Bioscience).

[6] = Side effects, hematology and blood chemistry in treated animals
P493 cells [7] = experiment: Mitochondrial membrane potential by JC-1 flow cytometry; assay type: cell-based, human; details: 9 μM FX11 or/and FK866, 24 hours
Source text: The lipophilic cation dye (5,5′,6,6′-tetrachloro-1,1′,3,3′-tetraethylbenzimidazolcarbocyanine iodide, JC-1) (Invitrogen) was used to detect the loss of the mitochondrial membrane potential. The negative charge established by the intact mitochondrial membrane potential lets the lipophilic dye stain the mitochondria bright red which emits in channel 2 (FL2). When the mitochondrial membrane potential collapses, JC-1 remains in the cytoplasm in a green fluorescent monomeric emission in channel 1 (FL1). JC-1 reversibly changes its color from green to orange as membrane potentials increase (over values of 80-100 mV). 10^5 cells/ml were treated with 9 μM FX11 or/and FK866 for 24 hours. Stained cells were analyzed in FACScan flow cytometers (BD Bioscience).

[8] = test system: P493 human lymphoma B cells; experiment: Cell population growth, trypan blue live cell count; assay type: cell-based
Method: P493 human lymphoma B cells were maintained in RPMI 1640 with 10% fetal bovine serum (FBS) and 1% penicillin-streptomycin. P198 human pancreatic cancer cells; RCC4, RCC4-VHL human renal carcinoma cells; MCF-7 and MDA-MB-453 breast cancer cells were maintained in high glucose (4.5 mg/ml) DMEM with 10% FBS and 1% penicillin-streptomycin. Non-hypoxic cells (20% O2) were maintained at 37° C. in a 5% CO2, 95% in an air incubator. Hypoxic cells (1% O2) were maintained in a controlled atmosphere chamber (PLAS-LABS, Lansing, Mich.) with a gas mixture containing 1% O2, 5% CO2, and 94% N2 at 37° C. for the indicated time. Bright live cells were counted daily in a hemacytometer using trypan blue dye to exclude dead cells. All cells were grown at a concentration of 10^5 cells/ml. All drugs treatment began at day 0.
siRNAs targeting human LDHA (ON-TARGETplus SMARTpool) were purchased from Dharmacon Research Inc. Targeting sequences for LDHA were a pool of the following four target sequences: sequence 1, […]; sequence 2, […]; sequence 3, […]; sequence 4, […]. Accordingly, one of skill in the art would recognize the siRNA sequences corresponding to these targets. For P493 human lymphoma B cells, transfection of siRNAs was performed using an Amaxa Nucleotransfection device according to the manufacturer's instructions. Briefly, 2 μg siLDHA ON-TARGETplus SMARTpool or ON-TARGETplus Non-targeting Pool (Dharmacon Research Inc.) were transfected into 2×10^6 cells at 0 hours. […]. The remaining cells were harvested for immunoblot analysis. For P198 human pancreatic cancer cells, transfection of siRNAs was performed using X-tremeGENE siRNA Transfection Reagent (Roche) according to the manufacturer's instructions.

P493 cells [9] = experiment: Annexin V / 7-AAD cell death assay; assay type: cell-based, human; details: NAC 20 mM at 24 hours post-transfection
LDHA [10] = molecular target: T1, LDHA; experiment: Screen of 1200 FDA approved compounds for an inhibitor of LDHA; assay type: biochemical
Source text: Reduction of LDHA by siRNA induced oxidative stress and cell death. To determine whether a small molecule inhibitor of LDHA could be used to modulate tumor metabolism, 1200 FDA approved compounds were screened to identify an inhibitor of LDHA. […] As such, a series of compounds generated by Vander Jagt and coworkers, who were specifically interested in targeting malarial LDH (pLDH) (Deck et al., 1998; Yu et al., 2001) was screened. […]; 2,3-dihydroxy-6-methyl-7-(phenylmethyl)-4-propylnaphthalene-1-carboxylic acid, Pubchem ID: 10498042) and 11e (E; 2,3-dihydroxy-6-methyl-7-(methyl)-4-propylnaphthalene-1-carboxylic acid, Pubchem ID: 10265351). […]; Yu et al., 2001). […]

SMILES: CCCc1c(O)c(O)c(C(=O)O)c2cc(C)c(C)cc12 [E, 2,3-dihydroxy-6-methyl-7-(methyl)-4-propylnaphthalene-1-carboxylic acid, reference compound]
- Ki [1]: > 90 µM
- mode of inhibition of LDHA ([1]; NADH as substrate, Lineweaver-Burk plots): competitive inhibitors
- tumor growth of established P493 lymphoma xenografts [2]: no detectable anti-tumor activity
- LDHA inhibitory activity (LDHA [3]): lower inhibitory activity versus FX11

SMILES: O=C(/C=C/c1cccnc1)NCCCCC1CCN(C(=O)c2ccccc2)CC1 [FK866, reference compound]
- AMP kinase (AMPK) activation (AMP kinase (AMPK)): activation
- ATP levels (P493 cells [4]): decrease in ATP levels
- ROS production (P493 cells [5]; 9 μM FX11 or FK866, 24 hours): increased ROS production
- tumor growth of established P493 lymphoma xenografts [2]: cytostatic outcome
- kidney (BUN, creatinine) or liver (aspartate aminotransferase, alanine aminotransferase, alkaline phosphatase) toxicity by blood chemistries ([6]; doses that affected tumor growth in vivo): did not reveal any evidence
- hematology (cytopenia) ([6]; single agent, five animals studied): mild thrombocytopenia
- mitochondrial membrane potential (P493 cells [7]): decreased
- proliferation of P493 cells ([8]; single agent): diminished proliferation

SMILES: CC(=O)N[C@@H](CS)C(=O)O [NAC, N-acetylcysteine, reference compound]
- effect on ROS induced by LDHA siRNA (P493 cells [5]; cells exposed to NAC): attenuated
- effect on cell death of siRNA-transfected cells (P493 cells [9]): partially reduced cell death
- effect on proliferation of P493 cells treated with either FX11 or FK866 ([8]; 20 mM NAC): partially rescue
- effect on cell proliferation of siRNA-transfected cells ([8]; NAC 20 mM at 24 hours post-transfection): partial rescue of cell proliferation

SMILES: CCCOc1ccccc1-c1nc2nn[nH]c2c(=O)[nH]1 [Zaprinast]
- LDHA inhibition in screen (LDHA [10]): weak LDHA inhibitor
